Data published in patent US20080293090A1, “AUTOMATED SEMI-SOLID MATRIX ASSAY AND LIQUID HANDLER APPARATUS FOR THE SAME” (AVENTIS PHARMACEUTICALS INC., priority 2001, published 2008).
Where a name gives a salt, the structure may show the parent alone.

Experiments:
Assay type in all cases: cell-based
HL-60 = assay: Soft agar assay, flavopiridol on already formed one week colonies; settings: Homo sapiens, 168 h, added to colonies formed after 7 days of incubation, read-out: Flavopiridol IC50 (uM) on Formed Colonies, Average ± Standard Error
Protocol: (§1) 25 μL of 10 μM calcein AM (in HBSS) is added to each well and allowed to incubate at 37 deg. C. for at least one hour. The plate is then read in a Cytofluor™ 4000 (3 counts/well) with a gain of 40. The fluorescence for calcein AM (after cleavage in live cells) is excitation=485+20 nm and emission=530+20 nm.
(§2) For analysis, the data provided by the CytoFluor™ are analyzed in EXCEL™. The DMSO control wells are averaged and the standard deviation determined. Each compound well is then divided by the control average×100 for % control. The triplicate wells are averaged and the standard deviation determined. There is some background fluorescence and the colonies treated after formation are not eliminated by the single two-week treatment. The background can be subtracted from each well. Statistical programs such as PRISM could also be used for the graphing and IC50 determination.
(§3) Table 7. provides the IC50 in micromolar values obtained using flavopiridol on already formed colonies of a number of different cell lines (one week colonies). Flavopiridol is added to colonies formed after 7 days of incubation at […]. This method of adding compounds to already formed colonies may be more predictive for the compound's effectiveness against a tumor in vivo.

NCI-H460 = assay: as above; settings: Homo sapiens, 168 h, added to colonies formed after 7 days of incubation, read-out: Flavopiridol IC50 (uM) on Formed Colonies, Average ± Standard Error
Protocol: as §1, §2, §3

PC-3 = assay: as above; settings: Homo sapiens, 168 h, added to colonies formed after 7 days of incubation, read-out: Flavopiridol IC50 (uM) on Formed Colonies, Average ± Standard Error
Protocol: as §1, §2, §3

Colo 205 = assay: as above; settings: Homo sapiens, 168 h, added to colonies formed after 7 days of incubation, read-out: Flavopiridol IC50 (uM) on Formed Colonies, Average ± Standard Error
Protocol: as §1
(§4) For analysis, the data provided by the CytoFluor™ are analyzed in EXCEL™. The DMSO control wells are averaged and the standard deviation determined. Each compound well is then divided by the control average×100 for % control. The triplicate wells are averaged and the standard deviation determined. […] The background can be subtracted from each well. Statistical programs such as PRISM could also be used for the graphing and IC50 determination.
(§5) Flavopiridol is added to colonies formed after 7 days of incubation at 37 deg.

MDA-MB435 = assay: as above; settings: Homo sapiens, MDA-MB-435, 168 h, added to colonies formed after 7 days of incubation, read-out: Flavopiridol IC50 (uM) on Formed Colonies, Average ± Standard Error
Protocol: as §1, §4, §5

tumor cells [1] = assay: Automated soft agar assay, 96-well plates, Calcein AM stained method; settings: read-out: IC50s (μM) with Flavopiridol 96-well
Protocol: It was determined that when plating with the test compound, the individual components, i.e., agarose, cells and compound, were more evenly distributed if premixed in a separate plate before being transferred to the 96-well plate. The test compounds were made 10× in RPMI GM, which was diluted to a 1× compound concentration in the mixing plate. […] Satisfactory results were obtained with the following combinations: 25 μL of 10 μM calcein AM (in HBSS) is added to each well and allowed to incubate at 37 deg. C. for at least one hour. […] The fluorescence for calcein AM (after cleavage in live cells) is excitation=485+20 nm and emission=530+20 nm. For analysis, the data provided by the CytoFluor™ are analyzed in EXCEL™. The DMSO control wells are averaged and the standard deviation determined. Each compound well is then divided by the control average×100 for % control. The triplicate wells are averaged and the standard deviation determined. There is some background fluorescence and the colonies treated after formation are not eliminated by the single two-week treatment. The background can be subtracted from each well. Statistical programs such as PRISM could also be used for the graphing and IC50 determination. […] As a comparison, the same compounds were tested in the traditional hand-pipetted, 24-well plates, visually counted method. The only difference was that the soft agar assay used a 500 μL agarose layer in the 24-well plate and 75 uL/layer in the 96-well system, using the Sigma agarose. The two methods produced similar results, i.e. IC50s for the compounds, see Table 4.

tumor cells [2] = assay: Traditional soft agar assay, 24-well tray, visual counting of colonies; settings: for IC50: read-out: IC50s Determined from Colony Counting; for Average # of colonies: 24-well tray
Protocol: As a comparison, the same compounds were tested in the traditional hand-pipetted, 24-well plates, visually counted method. The only difference was that the soft agar assay used a 500 μL agarose layer in the 24-well plate and 75 uL/layer in the 96-well system, using the Sigma agarose. The 24-well plates were also counted visually, Table 5, and the IC50s determined, Table 6.

tumor cells [3] = assay: Soft agar assay, hand-pipetted 24-well plates, Calcein AM stained method
Protocol: 25 μL of 10 μM calcein AM (in HBSS) is added to each well and allowed to incubate at 37 deg. C. for at least one hour. […] The fluorescence for calcein AM (after cleavage in live cells) is excitation=485+20 nm and emission=530+20 nm. For analysis, the data provided by the CytoFluor™ are analyzed in EXCEL™. The DMSO control wells are averaged and the standard deviation determined. Each compound well is then divided by the control average×100 for % control. The triplicate wells are averaged and the standard deviation determined. There is some background fluorescence and the colonies treated after formation are not eliminated by the single two-week treatment. The background can be subtracted from each well. Statistical programs such as PRISM could also be used for the graphing and IC50 determination. […] As a comparison, the same compounds were tested in the traditional hand-pipetted, 24-well plates, visually counted method. The only difference was that the soft agar assay used a 500 μL agarose layer in the 24-well plate and 75 uL/layer in the 96-well system, using the Sigma agarose. The two methods produced similar results, i.e. IC50s for the compounds, see Table 4.

[4] = flavopiridol added immediately after plating

`CN1CC[C@H](c2c(O)cc(O)c3c(=O)cc(-c4ccccc4Cl)oc23)[C@H](O)C1` [Flavopiridol, (cis-(−)-5,7-Dihydroxy-2-(2-chlorophenyl)-8-[4-(3-hydroxy-1-methyl)piperidinyl]-4H-1-benzopyran-4-one hydrochloride dihydrate] showed an IC50 (HL-60) of 1.6 ± 0.15 µM, an IC50 (NCI-H460) of 2.4 ± 0.1 µM and an IC50 (PC-3) of 1.7 ± 0.04 µM. The IC50 (Colo 205) was 1.4 ± 0.06 µM, the IC50 (MDA-MB435) was 2.2 ± 0.09 µM and the IC50 (tumor cells [1]; 168 h, flavopiridol added to one week colonies) was 1 µM. For the same compound, the IC50 (tumor cells [1]; cells plated with flavopiridol) was 0.15 µM, the IC50 (tumor cells [1]; [4]) was 0.6 µM and the IC50 (tumor cells [2]; added immediately after plating, 24-well, visual counting) was 0.4 µM. The “IC50s Determined from Colony Counting” value (tumor cells [2]; added to 1-week colonies, 24-well, visual counting) was “did not reach 50% control”, the “Average # of colonies” value (tumor cells [2]; flavopiridol added immediately after plating, 0.00032 μM) was 30 and the “Average # of colonies” value (tumor cells [2]; flavopiridol added immediately after plating, 0.0016 μM) was 30. The “Average # of colonies” value (tumor cells [2]; flavopiridol added immediately after plating, 0.008 μM) was 32, the “Average # of colonies” value (tumor cells [2]; flavopiridol added immediately after plating, 0.04 μM) was 26 and the “Average # of colonies” value (tumor cells [2]; flavopiridol added immediately after plating, 0.2 μM) was 27. The “Average # of colonies” value (tumor cells [2]; flavopiridol added immediately after plating, 1 μM) was 0, the “Average # of colonies” value (tumor cells [2]; flavopiridol added immediately after plating, 5 μM) was 0 and the “Average # of colonies” value (tumor cells [2]; flavopiridol added to one-week colonies, 0.0032 μM) was 34.0. The “Average # of colonies” value (tumor cells [2]; flavopiridol added to one-week colonies, 0.016 μM) was 35.0, the “Average # of colonies” value (tumor cells [2]; flavopiridol added to one-week colonies, 0.08 μM) was 32.0 and the “Average # of colonies” value (tumor cells [2]; flavopiridol added to one-week colonies, 0.4 μM) was 33. For the same compound, the “Average # of colonies” value (tumor cells [2]; flavopiridol added to one-week colonies, 2 μM) was 25, the “Average # of colonies” value (tumor cells [2]; flavopiridol added to one-week colonies, 10 μM) was 32 and the “Average # of colonies” value (tumor cells [2]; flavopiridol added to one-week colonies, 50 μM) was 20. For the same compound, the IC50 (tumor cells [2]; plated with Flavo, 24-well, visual counting) was 0.09 µM, the “Average # of colonies” value (tumor cells [2]; plated with flavopiridol, 0.00032 μM) was 27 and the “Average # of colonies” value (tumor cells [2]; plated with flavopiridol, 0.0016 μM) was 25. For the same compound, the “Average # of colonies” value (tumor cells [2]; plated with flavopiridol, 0.008 μM) was 22, the “Average # of colonies” value (tumor cells [2]; plated with flavopiridol, 0.04 μM) was 25 and the “Average # of colonies” value (tumor cells [2]; plated with flavopiridol, 0.2 μM) was 0. The “Average # of colonies” value (tumor cells [2]; plated with flavopiridol, 1 μM) was 0, the “Average # of colonies” value (tumor cells [2]; plated with flavopiridol, 5 μM) was 0 and the IC50 (tumor cells [3]; cells plated with flavopiridol) was 0.08 µM. For the same compound, the IC50 (tumor cells [3]; [4]) was 0.4 µM.
